Results: patent US3984390A, “Novel process for producing phleomycin group antibiotics” (Zaidan Hojin Biseibutsu Kagaku Kenkyu Kai, priority 1972, dated 1976)

Assays:
[1] = test system: Ehrlich ascites carcinoma; assay: Antitumor activity and toxicity in ICR-SLC mouse inoculated with Ehrlich ascites carcinoma, i.p. for ten consecutive days; type: in vivo; conditions: for Chemotherapeutic index: Table 5, ten consecutive days into peritoneal cavity, evaluated 50 days after beginning
Method: The phleomycin was administered for ten consecutive days into peritoneal cavity of a ICR-SLC mouse, into which Ehrlich ascites carcinoma had been inoculated. Fifty days after the beginning of the experiment, measurements were made for (1) the number of dead mouse owing to toxicity, (2) the number of survived mouse, (3) mean survival period in 50 days, and (4) the ratio of mean survival period to that of reference mouse multiplied by 100. The chemotherapeutic index was calculated from the values of ED50 (50 % effective dose) and LD50 (50 % lethal dose) which were obtained as given below.
ED50 value: The maximum dose level within the range of logevity ratio of 100 to 200.
LD50 value: Calculated according to Behrens-Karber method from the data of (1) and (2).
^(2) A bleomycin was administered for ten consecutive days into
peritoneal cavity of a ICR-SLC mouse, where Ehrlich ascites carcinoma had
been inoculated, and 50 days after the beginning of experiment the […]

[2] = test system: Mycobacterium smegmatis 607; assay: Antimicrobial potency, cylinder agar plate method, Bleomycin A2 (copper-free base) assumed as 1000 U/mg; type: cell-based; conditions: Mycobacterium smegmatis 607
Method: 1. Antimicrobial potency was assayed by a cylinder agar plate method on the basis of Bleomycin A2 (copper-free base) assumed as 1000 U/mg, using Mycobacterium smegmatis 607 as test organism.
^(1) Assayed by a cylinder-agar plate method using Mycobacterium
smegmatis 607 as test organism, the potency of bleomycin A2
(copper-free base) being assumed as 1000 unit/mg.
The resulting compound has 0.65 of Rf value of the Silica gel thin layer chromatograph (CH3 OH: 10 %-CH3 COONH4 : 10 %-NH4 OH = 10 : 9 : 1) and 0.53 of Rf value of the Avicel thin layer chromatography (n-C3 H7 OH : pyridine : CH3 COOH : H2 O = 15 : 10 : 3 : 12) which are same with those of the 3-morpholinopropylaminobleomycin. The antimicrobial activity to Mycobacterium smegmatis 607 by the cylinder-agar plate method (the standard copper-free bleomycin A2 free base 1,000 U/mg) was 605 U/mg.

[3] = bleomycins of Table 5, bleomycin A2 (copper-free base) = 1000 unit/mg
[4] = 0.19 mg/kg/day for 10 days i.p.
[5] = 0.39 mg/kg/day for 10 days i.p.
[6] = 0.78 mg/kg/day for 10 days i.p.
[7] = 1.56 mg/kg/day for 10 days i.p.
[8] = 3.12 mg/kg/day for 10 days i.p.
[9] = 6.25 mg/kg/day for 10 days i.p.
[10] = 12.5 mg/kg/day for 10 days i.p.
[11] = 25.0 mg/kg/day for 10 days i.p.

## 3-(3-N,N-Dimethylaminopropylamino)propylaminobleomycin
[1]
  Chemotherapeutic index: 54
[2]; [3]
  Antimicrobial potency: 1670 Unit/mg

## 3-N-Cyclohexylaminopropylaminobleomycin
[1]
  Chemotherapeutic index: 16.3
[2]; [3]
  Antimicrobial potency: 6560 Unit/mg

## 3-(3-Pyrrolidinopropylamino)propylaminobleomycin
[1]
  Chemotherapeutic index: 26.4
[2]; [3]
  Antimicrobial potency: 3286 Unit/mg

## 3-N,N-Diethylaminopropylaminobleomycin
[1]
  Chemotherapeutic index: 34.5
[2]; [3]
  Antimicrobial potency: 1036 Unit/mg

## 3-Morpholinopropylaminophleomycin
[1]; [4]
  Average longevity (mean survival period in 50 days): 20.6
  Longevity ratio (mean survival period to that of reference mouse multiplied by 100): 167
  Toxicity, number dead/total number: 0/5
  Viability (after 50 days), number survived/total number: 0/5
[1]; [5]
  Average longevity (mean survival period in 50 days): 16.2
  Longevity ratio (mean survival period to that of reference mouse multiplied by 100): 133
  Toxicity, number dead/total number: 0/5
  Viability (after 50 days), number survived/total number: 0/5
[1]; [6]
  Average longevity (mean survival period in 50 days): 22.8
  Longevity ratio (mean survival period to that of reference mouse multiplied by 100): 187
  Toxicity, number dead/total number: 0/5
  Viability (after 50 days), number survived/total number: 0/5
[1]; [7]
  Average longevity (mean survival period in 50 days): 35.0
  Longevity ratio (mean survival period to that of reference mouse multiplied by 100): 287
  Toxicity, number dead/total number: 0/5
  Viability (after 50 days), number survived/total number: 2/5
[1]; [8]
  Average longevity (mean survival period in 50 days): 49.2
  Longevity ratio (mean survival period to that of reference mouse multiplied by 100): 403
  Toxicity, number dead/total number: 0/5
  Viability (after 50 days), number survived/total number: 5/5
[1]; [9]
  Average longevity (mean survival period in 50 days): 50.0
  Longevity ratio (mean survival period to that of reference mouse multiplied by 100): 410
  Toxicity, number dead/total number: 0/5
  Viability (after 50 days), number survived/total number: 5/5
[1]; [10]
  Average longevity (mean survival period in 50 days): 39.2
  Longevity ratio (mean survival period to that of reference mouse multiplied by 100): 321
  Toxicity, number dead/total number: 2/5
  Viability (after 50 days), number survived/total number: 3/5
[1]; [11]
  Average longevity (mean survival period in 50 days): 26.2
  Longevity ratio (mean survival period to that of reference mouse multiplied by 100): 215
  Toxicity, number dead/total number: 5/5
  Viability (after 50 days), number survived/total number: 0/5
[1]; Tables 2 to 4, i.p., for 10 days, 72000 min
  Chemotherapeutic index (LD50/ED50): 19.2
[1]; as shown in Tables 2 and 3
  Prolongation effect on the survival period of ICR-SLC mouse inoculated with Ehrlich ascites carcinoma: distinct prolongation effect
[1]; i.p., for 10 days, Behrens-Karber method, 72000 min
  LD50 (50 % lethal dose): 15.0 mg/kg/day
[1]; i.p., for 10 days, maximum dose level within the range of longevity ratio of 100 to 200, 72000 min
  ED50 (50 % effective dose): 0.78 mg/kg/day
[1]; same terminal amine Y
  Chemotherapeutic index compared with 3-morpholinopropylaminobleomycin: practically same order
[2]; phleomycins of Table 1, Bleomycin A2 (copper-free base) = 1000 U/mg
  Antimicrobial potency: 474 unit/mg

## 3-Piperidinopropylaminobleomycin
[1]
  Chemotherapeutic index: 14.4
[2]; [3]
  Antimicrobial potency: 1257 Unit/mg

## 2-N,N-Dimethylaminoethylaminobleomycin
[1]
  Chemotherapeutic index: 7.8
[2]; [3]
  Antimicrobial potency: 897 Unit/mg

## 3-N,N-Dimethylaminopropylaminobleomycin
[1]
  Chemotherapeutic index: 20.4
[2]; [3]
  Antimicrobial potency: 806 Unit/mg
